Test results: US9995734B2, “Human T cell line assay for evaluating the immunologic identity of glatiramer acetate preparations” (Mylan Inc., priority 2013, dated 2018)
Where “and” joins values, the source holds several entries; their conditions need not be identical. Equal entries are not always repeated.

Experiments:
Type in all cases: cell-based, human
[1] = system: Donor 3 GMA T-Cell Lines; experiment: ATP proliferation assay (CellTiter Glo), Donor 3 GMA T-cell lines, incl. reactivity to non-canonical GA peptides
[2] = system: Donor 1 GMA Expanded T-Cell Lines (222-AG11, 222-AG12, 222-BA11, 222-BC11); experiment: ATP proliferation assay (CellTiter Glo), Donor 1 GMA expanded T-cell lines, incl. reactivity to non-canonical GA peptides; conditions: for Proliferation (luminescent ATP assay), Mean: T-cell line 222-AG12, autologous B-LCL
Method in brief: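 GMA-expanded T-cell lines from Donor 1 restimulated with GMA (0–100 μg/mL), or with non-canonical GA peptides, COP and GMA (0–30 μg/mL; T cells 2×10^5 cells/mL). Mitomycin C-treated autologous PBMC or B-LCL served as APC. Proliferation read by CellTiter-Glo ATP luminescence after 3 days at 37° C.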

[3] = system: Donor 4 COP T-Cell Lines; experiment: ATP proliferation assay (CellTiter Glo), Donor 4 COP T-cell lines, incl. reactivity to non-canonical GA peptides; conditions: for Non-Canonical Peptide Non-Reactivity: proliferation <2 times no antigen control; for Proliferation (luminescent ATP assay), Mean: T-cell line 205-1F4, Day 71, autologous B-LCL

poly (Glu-Lys-Tyr; 6:3:1) [GLT 631]
Proliferation (luminescent ATP assay), Mean ([1]; T-cell line 165-F5G, 10 μg/mL antigen, autologous B-LCL): 110 RLU
Proliferation (luminescent ATP assay), Mean ([1]; T-cell line 165-F10G, 1 μg/mL antigen, Day 50 of culturing, No Antigen Value 3752): 3363 RLU
Proliferation (luminescent ATP assay), Mean ([1]; T-cell line 165-F10G, 1.25 μg/mL antigen, autologous B-LCL): 1012 RLU
Proliferation (luminescent ATP assay), Mean ([1]; T-cell line 165-F10G, 2.5 μg/mL antigen, autologous B-LCL): 1389 RLU
Proliferation (luminescent ATP assay), Mean ([1]; T-cell line 165-F10G, 3 μg/mL antigen, Day 50 of culturing, No Antigen Value 3752): 3061 RLU
Proliferation (luminescent ATP assay), Mean ([1]; T-cell line 165-F10G, 5 μg/mL antigen, autologous B-LCL): 2620 RLU
Proliferation (luminescent ATP assay), Mean ([1]; T-cell line 165-F10G, 10 μg/mL antigen, Day 50 of culturing, No Antigen Value 3752): 4823 RLU
Proliferation (luminescent ATP assay), Mean ([1]; T-cell line 165-F10G, 10 μg/mL antigen, autologous B-LCL): 2505 RLU
Proliferation (luminescent ATP assay), Mean ([1]; T-cell line 165-F10G, 30 μg/mL antigen, Day 50 of culturing, No Antigen Value 3752): 4568 RLU
Proliferation (luminescent ATP assay), Mean ([1]; T-cell line 165-H11G, 1 μg/mL antigen, Day 50 of culturing, No Antigen Value 1485): 2763 RLU
Proliferation (luminescent ATP assay), Mean ([1]; T-cell line 165-H11G, 1.25 μg/mL antigen, autologous B-LCL): 29 RLU
Proliferation (luminescent ATP assay), Mean ([1]; T-cell line 165-H11G, 2.5 μg/mL antigen, autologous B-LCL): 344 RLU
Proliferation (luminescent ATP assay), Mean ([1]; T-cell line 165-H11G, 3 μg/mL antigen, Day 50 of culturing, No Antigen Value 1485): 2875 RLU
Proliferation (luminescent ATP assay), Mean ([1]; T-cell line 165-H11G, 5 μg/mL antigen, autologous B-LCL): 448 RLU
Proliferation (luminescent ATP assay), Mean ([1]; T-cell line 165-H11G, 10 μg/mL antigen, Day 50 of culturing, No Antigen Value 1485): 3028 RLU
Proliferation (luminescent ATP assay), Mean ([1]; T-cell line 165-H11G, 10 μg/mL antigen, autologous B-LCL): 435 RLU
Proliferation (luminescent ATP assay), Mean ([1]; T-cell line 165-H11G, 30 μg/mL antigen, Day 50 of culturing, No Antigen Value 1485): 3093 RLU
Non-Canonical Peptide Non-Reactivity ([2]; 222-AG12, proliferation <2 times no antigen control): GLT 631
Nonreactive T-Cell Line ([2]; Donor 1 GMA expanded lines, stimulation with the non-canonical GA peptide): 222-AG12 (Donor 1)
Proliferation (luminescent ATP assay), Mean ([2]; 1 ug/mL antigen): 3801 RLU
Proliferation (luminescent ATP assay), Mean ([2]; 10 ug/mL antigen): 4002 RLU
Proliferation (luminescent ATP assay), Mean ([2]; 30 ug/mL antigen): 5292 RLU
Non-Canonical Peptide Non-Reactivity ([3]; 205-1B4): GLT 631
Non-Canonical Peptide Non-Reactivity ([3]; 205-1C4): GLT 631
Non-Canonical Peptide Non-Reactivity ([3]; 205-1F4): GLT 631
Non-Canonical Peptide Non-Reactivity ([3]; 205-1H3): GLT 631
Non-Canonical Peptide Non-Reactivity ([3]; 205-1H5): GLT 631
reactivity to non-canonical GA peptides ([3]; 205-1H7, after seven stimulations, 0, 1, 10, 30 μg/mL): reactivity
Non-Canonical Peptide Reactivity ([3]; 205-1H7, at least one proliferation value >=2 times no antigen control): GLT 631
Non-Canonical Peptide Non-Reactivity ([3]; 205-1H11): GLT 631
Reactive T-Cell Line ([3]; Donor 4 COP lines, at least a 50% increase in proliferation relative to a control after stimulation with the non-canonical GA peptide): 205-1H7 (Donor 4)
Nonreactive T-Cell Line ([3]; Donor 4 COP lines, stimulation with the non-canonical GA peptide): 205-1B4 (Donor 4) and 205-1C4 (Donor 4) and 205-1F4 (Donor 4) and 205-1H3 (Donor 4) and 205-1H5 (Donor 4) and 205-1H11 (Donor 4)
Reactivity (proliferation), Mean ([3]; T-cell line 205-1B4, 1 μg/mL antigen, No Antigen 830): 912 RLU
Reactivity (proliferation), Mean ([3]; T-cell line 205-1B4, 3 μg/mL antigen, No Antigen 830): 1059 RLU
Reactivity (proliferation), Mean ([3]; T-cell line 205-1B4, 10 μg/mL antigen, No Antigen 830): 1387 RLU
Reactivity (proliferation), Mean ([3]; T-cell line 205-1B4, 30 μg/mL antigen, No Antigen 830): 1389 RLU
Reactivity (proliferation), Mean ([3]; T-cell line 205-1C4, 1 μg/mL antigen, No Antigen 4464): 4559 RLU
Reactivity (proliferation), Mean ([3]; T-cell line 205-1C4, 3 μg/mL antigen, No Antigen 4464): 4934 RLU
Reactivity (proliferation), Mean ([3]; T-cell line 205-1C4, 10 μg/mL antigen, No Antigen 4464): 5616 RLU
Reactivity (proliferation), Mean ([3]; T-cell line 205-1C4, 30 μg/mL antigen, No Antigen 4464): 5782 RLU
Proliferation (luminescent ATP assay), Mean ([3]; 1 μg/mL antigen): 1938
Proliferation (luminescent ATP assay), Mean ([3]; 3 μg/mL antigen): 1863
Proliferation (luminescent ATP assay), Mean ([3]; 10 μg/mL antigen): 2504
Reactivity (proliferation), Mean ([3]; T-cell line 205-1H5, 1 μg/mL antigen, No Antigen 749): 710 RLU
Reactivity (proliferation), Mean ([3]; T-cell line 205-1H5, 3 μg/mL antigen, No Antigen 749): 885 RLU
Reactivity (proliferation), Mean ([3]; T-cell line 205-1H5, 10 μg/mL antigen, No Antigen 749): 1153 RLU
Reactivity (proliferation), Mean ([3]; T-cell line 205-1H5, 30 μg/mL antigen, No Antigen 749): 1294 RLU
